Laboratory results as given in US20250140406A1, “CLASSIFYING TUMORS AND PREDICTING RESPONSIVENESS” (Oncocyte Corporation, priority 2022, published 2025).

What was measured:
[1] = tested on: cancer cell lines classified IM, MSL, M; experiment: PRISM screen compound sensitivity correlated with IM, MSL and M subtype of cell lines (101 gene signature); type: cell-based; settings: for IM Corr test: correlation of PRISM compound sensitivity with IM subtype correlation; for M Corr test: correlation of PRISM compound sensitivity with M subtype correlation; for MSL Corr test: correlation of PRISM compound sensitivity with MSL subtype correlation
[2] = tested on: cancer cell lines, DetermaIO classes; experiment: Association of PRISM compound sensitivity with DetermaIO (DTIO) cell line classes; type: cell-based
[3] = correlation of PRISM compound sensitivity with DTIO; test cell set
[4] = correlation of PRISM compound sensitivity with DTIO; training cell set
[5] = correlation of PRISM compound sensitivity with DTIO (DetermaIO); test cell set (188 cell lines)
[6] = correlation of PRISM compound sensitivity with DTIO (DetermaIO); training cell set (371 cell lines)
[7] = subtype (IM, MSL or M) with which PRISM compound sensitivity is negatively correlated, training cell set, 101 gene signature
[8] = subtype (IM, MSL or M) with which compound sensitivity is negatively correlated, training cell set (371 cell lines), 101 gene signature
[9] = correlation of PRISM compound sensitivity with DTIO; test cell set (188 cell lines)
[10] = correlation of PRISM compound sensitivity with DTIO; training cell set (371 cell lines)
[11] = correlation of compound sensitivity with DetermaIO (DTIO), test set
[12] = correlation of compound sensitivity with DetermaIO (DTIO), training set

Compound | IM Corr test ([1]; test cell set) | M Corr test ([1]; test cell set) | MSL Corr test ([1]; test cell set) | DTIO Corr test [2, 3] | DTIO Corr train [2, 4] | IM Corr test ([1]; test cell set (188 cell lines)) | M Corr test ([1]; test cell set (188 cell lines)) | MSL Corr test ([1]; test cell set (188 cell lines)) | other results
O=S(=O)(O)c1ccc(O)cc1 [4-phenolsulfonic-acid] | −0.06223 | 0.02717 | 0.006866 | −0.03477 | −0.1569 |  |  |  | 
O=C(O)c1ccc(N2C(=O)/C(=C\c3ccc(-c4ccc([N+](=O)[O-])cc4)o3)C=C2c2ccccc2)cc1 [4E1RCat] |  |  |  |  |  | 0.05564 | −0.08971 | 0.01051 | DTIO Corr test [2, 5]: 0.01627; DTIO Corr train [2, 6]: 0.1551
Cc1ccc(C[N+](C)(C)C)o1.[I-] [5-methylfurmethiodide] | −0.09845 | 0.06783 | 0.0844 | −0.01347 | −0.1413 |  |  |  | 
CN[C@@H]1C[C@H]2O[C@@](C)([C@@H]1OC)n1c3ccccc3c3c4c(c5c6ccccc6n2c5c31)C(=O)N[C@H]4O [7-hydroxystaurosporine] | −0.06588 | 0.06924 | 0.09088 | −0.07646 | −0.1515 |  |  |  | 
COc1ccc2nc3c(c(N)c2c1)CCCC3 [7-methoxytacrine] | −0.03879 | −0.03683 | −0.06604 | 0.06329 | −0.03204 |  |  |  | TNBCType train [1, 7]: MSL
Nc1nc2c(nc(Br)n2[C@@H]2O[C@@H]3COP(=O)(O)O[C@H]3[C@H]2O)c(=O)[nH]1 [8-bromo-cGMP] |  |  |  | −0.017 | 0.07485 | −0.00708 | −0.06633 | −0.05953 | TNBCType train [1, 8]: MSL
CCN(CC)CCCCN1c2ccccc2Oc2ccc(Cl)cc21 [10-DEBC] |  |  |  |  |  | −0.00116 | −0.0627 | −0.03074 | DTIO Corr test [2, 5]: −0.02503; DTIO Corr train [2, 6]: −0.1109
Cc1ccc(Sc2cncc3sc(C(N)=O)cc23)cc1 [A205804] |  |  |  |  |  | −0.1562 | 0.1655 | 0.07391 | DTIO Corr test [2, 5]: −0.1235; DTIO Corr train [2, 6]: −0.1273
C/C=C1/[C@H](O[C@@H]2O[C@H](CO)[C@@H](O)[C@H](O)[C@H]2O)OC=C(C(=O)OC)[C@H]1CC(=O)OCCc1ccc(O)c(O)c1 [A00842753] |  |  |  |  |  |  |  |  | TNBCType test ([1]; classification of association of compound sensitivity with IM, MSL and M cell line classes, test data set): MSL; TNBCType train ([1]; classification of association of compound sensitivity with IM, MSL and M cell line classes, training data set): MSL; DTIO Corr test ([2]; association of compound sensitivity with DetermaIO classes; test data set): 0.02172; DTIO Corr train ([2]; association of compound sensitivity with DetermaIO classes; training data set): −0.00213
C#Cc1cccc2c1c(C(=O)c1ccc(Cn3c(C)nc4cnccc43)c(F)c1)cn2C(=O)N(C)C [ABT-491] |  |  |  |  |  | −0.08486 | 0.04621 | 0.009812 | DTIO Corr test [2, 9]: −0.1207; DTIO Corr train [2, 10]: −0.1065
C/C(=N\NC(=O)[C@H]1C(=O)NC[C@@H]1c1ccccc1)c1cccc(Br)c1 [AC-264613] |  |  |  |  |  | −0.07621 | 0.0938 | 0.002402 | DTIO Corr test [2, 5]: −0.03521; DTIO Corr train [2, 6]: −0.07682
C[C@H](Nc1ncnc2[nH]cnc12)c1cc2ccc(F)cc2nc1-c1ccccn1 [AMG319] |  |  |  | 0.03283 | −0.03859 | 0.07986 | −0.1713 | −0.08814 | TNBCType train [1, 8]: MSL
C[C@H](Nc1ncnc2[nH]cnc12)c1cc2ccc(F)cc2nc1-c1ccccn1 [AMG-319] | −0.00518 | −0.1202 | −0.07748 | −0.04463 | −0.0218 |  |  |  | TNBCType train [1, 7]: MSL
CCOc1ccc(-n2c([C@@H](C)N(Cc3cccnc3)C(=O)Cc3ccc(OC(F)(F)F)cc3)nc3ncccc3c2=O)cc1 [AMG-487] |  |  |  |  |  | −0.08583 | 0.04766 | 0.1557 | DTIO Corr test [2, 5]: −0.01666; DTIO Corr train [2, 6]: −0.0821
C[C@@H]1COC(Nc2ccc3ncnc(Nc4ccc(OCc5nccs5)c(Cl)c4)c3c2)=N1 [ARRY-334543] | −0.1679 | 0.2632 | 0.3622 | −0.03109 | −0.05992 |  |  |  | DTIO Corr test [2, 11]: −0.03109; DTIO Corr train [2, 12]: −0.05992
Clc1ccc(C2(c3ccc(-c4cn[nH]c4)cc3)CCNCC2)cc1 [AT7867] |  |  |  | 0.003574 | 0.04812 | 0.04603 | −0.1665 | −0.1142 | TNBCType train [1, 8]: MSL

Compound | IM Corr test ([1]; test cell set) | M Corr test ([1]; test cell set) | MSL Corr test ([1]; test cell set) | DTIO Corr test [2, 3] | DTIO Corr train [2, 4] | IM Corr test ([1]; test cell set (188 cell lines)) | M Corr test ([1]; test cell set (188 cell lines)) | MSL Corr test ([1]; test cell set (188 cell lines)) | other results
C=CC(=O)Nc1cc2c(Nc3ccc(F)c(Cl)c3)ncnc2cc1C#CC(C)(C)N1CCN(C)CC1.Cc1ccc(S(=O)(=O)O)cc1.Cc1ccc(S(=O)(=O)O)cc1 [AV-412] | −0.1668 | 0.2317 | 0.3378 | −0.04654 | −0.09469 |  |  |  | DTIO Corr test ([2]; correlation of compound sensitivity with DTIO; test set): −0.04654; DTIO Corr train ([2]; correlation of compound sensitivity with DTIO; training set): −0.09469
Cc1cc(Nc2nc(N[C@@H](C)c3ccc(F)cc3)c(C#N)cc2F)n[nH]1 [AZ960] |  |  |  |  |  | −0.0625 | 0.008122 | 0.05509 | DTIO Corr test [2, 5]: −0.07766; DTIO Corr train [2, 6]: −0.135
Cc1ccc(NC(=O)c2cccc(C(C)(C)C#N)c2)cc1Nc1ccc2ncn(C)c(=O)c2c1 [AZ-628] |  |  |  | 0.3247 | 0.1908 | 0.3356 | −0.2327 | 0.1133 | DTIO Corr test [2, 11]: 0.3247; DTIO Corr train [2, 12]: 0.1908; DTIO Corr test ([2]; correlation of compound sensitivity with DetermaIO (DTIO); test set): 0.3247; DTIO Corr train ([2]; correlation of compound sensitivity with DetermaIO (DTIO); training set): 0.1908
C=CCNC(=O)c1cc([N+](=O)[O-])cc2c(=O)[nH]c(Nc3ccc(Cl)c(Cl)c3)nc12 [AZ-10417808] | −0.06367 | 0.03341 | 0.2588 | −0.05539 | −0.1839 |  |  |  | 
N[C@@H]1CCCN(c2c(/C=C3\SC(=O)NC3=O)cccc2-c2ccccc2)C1 [AZD1208] | 0.06359 | −0.02916 | 0.004575 | 0.02868 | 0.03472 |  |  |  | 
C[C@@H](Oc1cc(NS(=O)(=O)N2CCC2)nc(SCc2cccc(F)c2F)n1)[C@@H](O)CO [AZD5069] | −0.07882 | 0.1362 | 0.02875 | −0.00725 | −0.151 |  |  |  | 
Cc1ncc(-c2ccnc(Nc3ccc(S(C)(=O)=O)cc3)n2)n1C(C)C [AZD5438] |  |  |  |  |  | −0.1498 | 0.0844 | 0.1271 | DTIO Corr test [2, 5]: −0.1301; DTIO Corr train [2, 6]: −0.08372
Cc1nc(C)c(-c2ccc(C3CCC(CC(=O)O)CC3)cc2)nc1C(N)=O (centres unmarked) [AZD7687] | −0.05809 | 0.08898 | 0.08286 | −0.03167 | −0.02143 |  |  |  | 
CNC(=O)CN1CCC(Oc2cc3c(Nc4cccc(Cl)c4F)ncnc3cc2OC)CC1 [AZD8931] |  |  |  |  |  | −0.09307 | 0.2208 | 0.4034 | DTIO Corr test [2, 9]: 0.04159; DTIO Corr train [2, 10]: −0.08735
Cc1c(-c2ccnn2C)cc(C(=O)NCc2ccc(S(C)(=O)=O)cn2)c(=O)n1-c1cccc(C(F)(F)F)c1 [AZD9668] | 0.06774 | −0.1139 | 0.009005 | −0.00254 | 0.06934 |  |  |  | 
O=C(c1ccc(Cl)o1)N1CC2CNCC2C1 (centres unmarked) [AZD 1446] |  |  |  | −0.00648 | −0.01778 | −0.01023 | −0.00226 | −0.09838 | TNBCType train [1, 8]: MSL
Cc1ccc(S(=O)(=O)/C=C/C#N)cc1 [BAY-11-7082] |  |  |  | 0.04014 | −0.00647 | 0.07793 | −0.1474 | 0.0317 | 
Cc1oc2nc3c(c(NC(=O)CN4CCCC4=O)c2c1C)CCCC3 [BCI-540] | 0.07689 | −0.08152 | −0.1815 | 0.01234 | −0.02488 |  |  |  | TNBCType train [1, 7]: MSL
CC(C)CCN1c2nc(Nc3cc(F)c(O)c(F)c3)ncc2N(C)C(=O)C1C (centres unmarked) [BI-D1870] |  |  |  | 0.01854 | −0.09163 | −0.01584 | 0.01001 | 0.02005 | 
C/C(=C\C(=O)Nc1ccccc1C(=O)O)c1ccc2ccccc2c1 [BIBR-1532] |  |  |  | −0.226 | −0.05255 | −0.1712 | 0.141 | −0.1482 | TNBCType train [1, 8]: MSL
